From US6291683A, “N-arloxyethyl-alkylamines for the treatment of depression” (American Home Products Corp, priority 2000, dated 2001)
Where two headings read alike, the source gives them in different places.

What was measured:
serotonin transporter = molecular target: T1, serotonin transporter (Rattus norvegicus, UniProt P31652); assay: affinity for the serotonin transporter ([3H]-paroxetine binding, rat frontal cortical membranes); design: species or system rat (male Sprague-Dawley); conditions: for inhibition at 0.1 µM: @ .1 μM, read-out: ST (% Inhib. @ .1 μM)
T1 construct: frontal cortical membranes prepared from male Sprague-Dawley rats; from tissue; host or cells: frontal cortex membranes, male Sprague-Dawley rats
Description: Briefly, frontal cortical membranes prepared from male Sprague-Dawley rats were incubated with ^3 H-paroxetine (0.1 nM) for 60 min at 25° C. […] All reactions are terminated by the addition of ice cold Tris buffer followed by rapid filtration using a Tom Tech filtration device to separate bound from free ^3 H-paroxetine.

5-HT1A cloned receptor = molecular target: T2, 5-HT1A cloned receptor (Homo sapiens, UniProt P08908); assay: [35S]-GTPγS binding assay, 5-HT1A cloned receptor membrane fragments; type: biochemical; conditions: maximum agonist response defined by excess 8-OH-DPAT
T2 construct: expressed in transfected cells
T2 sequence (P08908 1-422): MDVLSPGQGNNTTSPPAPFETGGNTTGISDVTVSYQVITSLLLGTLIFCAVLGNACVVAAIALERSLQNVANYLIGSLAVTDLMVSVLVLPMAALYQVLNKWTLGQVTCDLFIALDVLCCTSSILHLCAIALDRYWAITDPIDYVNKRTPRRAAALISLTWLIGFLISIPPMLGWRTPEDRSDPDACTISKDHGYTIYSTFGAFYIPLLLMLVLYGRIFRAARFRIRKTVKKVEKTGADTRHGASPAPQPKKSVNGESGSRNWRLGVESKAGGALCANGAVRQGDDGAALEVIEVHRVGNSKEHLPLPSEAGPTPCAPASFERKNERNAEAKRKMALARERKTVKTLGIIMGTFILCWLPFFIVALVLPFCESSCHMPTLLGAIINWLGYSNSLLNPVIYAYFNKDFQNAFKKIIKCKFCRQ

human 5-HT1A receptor = molecular target: T3, human 5-HT1A receptor (Homo sapiens, UniProt P08908); assay: 5-HT1A receptor binding ([3H]8-OH-DPAT displacement, membranes of 5-HT1A.CHO cells)
T3 sequence (P08908 1-422): T2 sequence (P08908 1-422)
Description: Cells were maintained in DMEN supplemented with 10% fetal calf serum, non-essential amino acids and penicillin/ streptomycin.
Cells were grown to 95-100% confluency as a monolayer before membranes were harvested for binding studies. Cells were gently scraped from the culture plates, transferred to centrifuge tubes, and washed twice by centrifugation (2000 rpm for 10 min., 4° C.) in buffer (50 mM Tris; pH 7.5). The resulting pellets were aliquoted and placed at -80° C. On the day of assay, the cells were thawed on ice, and resuspended in buffer. Studies were conducted using [^3 H]8-OH-DPAT as the radioligand. The binding assay was performed in 96 well microtiter plates in a final total volume of 250 μL of buffer.

[1] = [3H]-paroxetine 0.1 nM, 60 min, 25° C
[2] = read-out: 5-HT1A (Ki), [3H]8-OH-DPAT 1.5 nM, 30 min, room temperature, CHO cell membranes

T1 sequence (P31652 whole entry): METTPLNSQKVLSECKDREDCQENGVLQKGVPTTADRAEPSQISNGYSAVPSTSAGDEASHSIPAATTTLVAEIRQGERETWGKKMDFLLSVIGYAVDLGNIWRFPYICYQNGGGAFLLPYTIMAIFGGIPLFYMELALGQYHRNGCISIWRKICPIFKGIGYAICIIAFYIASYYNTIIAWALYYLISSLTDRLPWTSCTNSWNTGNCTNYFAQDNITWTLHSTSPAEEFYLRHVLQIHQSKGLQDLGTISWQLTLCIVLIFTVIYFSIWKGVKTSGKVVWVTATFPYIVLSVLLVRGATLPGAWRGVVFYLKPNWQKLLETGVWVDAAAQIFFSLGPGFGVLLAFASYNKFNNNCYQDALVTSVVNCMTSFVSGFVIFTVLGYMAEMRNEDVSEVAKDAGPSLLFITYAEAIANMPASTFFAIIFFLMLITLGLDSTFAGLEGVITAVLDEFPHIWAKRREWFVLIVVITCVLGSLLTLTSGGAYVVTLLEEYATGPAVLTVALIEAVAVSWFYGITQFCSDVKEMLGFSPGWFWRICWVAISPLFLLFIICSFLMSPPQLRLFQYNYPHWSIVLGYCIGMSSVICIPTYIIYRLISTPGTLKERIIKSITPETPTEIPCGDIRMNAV

| Molecule | Ki (serotonin transporter) [nM] | Emax (5-HT1A cloned receptor) [%] | Ki (human 5-HT1A receptor) [nM] | inhibition at 0.1 µM (serotonin transporter; [1]) [%] | Ki (human 5-HT1A receptor; [2]) [nM] | other results |
| --- | --- | --- | --- | --- | --- | --- |
| c1cc(OCCNCCc2c[nH]c3ccccc23)c2c(c1)OCCO2 [Example 6, [2-(2,3-Dihydrobenzo[1,4]dioxin-5-yloxy)-ethyl]-[2-(1H-indol-3-yl)-ethyl]-amine] | 12 | 100 | – | – | – | – |
| Fc1ccc2[nH]cc(CCCNCCOc3cccc4c3CCC4)c2c1 [Example 13a, [3-(5-Fluoro-1H-indol-3-yl)-propyl]-[2-(indan-4-yloxy)-ethyl]-amine] | – | – | 76.9 | 71 | – | – |
| c1ccc(OCCNCCCc2c[nH]c3ccccc23)cc1 [Example 13d, [3-(1H-indol-3-yl)-propyl]-[2-phenoxy-ethyl]-amine] | – | – | – | 26 | – | – |
| Fc1ccc2[nH]cc(CCCNCCOc3ccc4c(c3)CCC4)c2c1 [Example 14] | 56 | – | 158 | – | – | – |
| COc1ccccc1OC(C)CNCCCc1c[nH]c2ccc(F)cc12 (stereo not drawn) [Example 17, [3-(5-Fluoro-1H-indol-3-yl)-propyl]-[2-(2-methoxy-phenoxy)propyl]amine] | – | 97.5 | – | – | 14.5 | Ki (serotonin transporter; read-out: ST (Ki), [3H]-paroxetine 0.1 nM, 60 min, 25° C, Ki converted from IC50 (Cheng and Prusoff)): 16 nM |
| [3-(5-Fluoro-1H-indol-3-yl)-propyl]-[2-(2-methoxy-phenoxy)-2-phenyl-ethyl]- amine [Example 16] | – | – | – | – | 43.9 | Ki (serotonin transporter; [3H]-paroxetine 0.1 nM, 60 min, 25° C, Ki converted from IC50 (Cheng and Prusoff), read-out: ST (Ki)): 21 nM |
